pIC50: −log10 of the molar value.
Columns and labels:
RET promoter i-motif = experiment: TO displacement assay, RET i-motif; type: binding
Experimental: DNA oligonucleotides were diluted to 1 μM with 1 × PBES buffer at pH 5.5, annealed at 95 °C for 10 min, cooled to room temperature, and stored at 4 °C for future use. TO dye (1 μM) was added to the DNA solution followed with incubation for 1 h. The spectra of 100 μL mixture with addition of different equivalent compounds at 25 °C were recorded based on fluorescence emission (λex = 480 nm).
TO displacement ratio (%) = (F0 − FC) / (F0 − FB) * 100.
F0 and FC were the fluorescence intensity of TO at 536 nm with DNA before and after adding compounds, respectively. FB was the fluorescence intensity of TO at 536 nm with buffer only.

SH-SY5Y cells = experiment: MTT cytotoxicity assay, SH-SY5Y; type: cell-based
Experimental: (§1) SH-SY5Y cells, HepG2 cells, HK-2 cells and HT-22 cells were seeded on 96-well plates (5.0×10^3 per well) with 100 μL of culture medium, and incubated for 12 h at 37 °C in a humidified atmosphere with 5% CO2, and then exposed to various concentrations of B14. After 48 h of treatment at 37 °C in a humidified atmosphere with 5% CO2, 100 μL of 0.5 mg/mL MTT solution was added to each well, and the mixture was further incubated for 4 h. The cells in each well were then treated with DMSO (200 μL for each well), and the culture medium was siphoned off, and the absorbance was recorded at 570 nm. All drug doses were parallel tested in triplicate, and the cytotoxicity was evaluated based on the percentage of cell survival in a dose-dependent manner regarding the negative control. The final IC50 values were determined by using Graph Pad Prism 9.0.

HT-22 cells = experiment: MTT cytotoxicity assay, HT-22; type: cell-based; details: Mus musculus, incubation for 48 h
Experimental: as §1

[1] = tested on: BCL-2 gene transcription in SH-SY5Y cells; experiment: Real-time RT-PCR in SH-SY5Y cells, BCL-2; type: cell-based, human
Experimental: (§2) SH-SY5Y cells were treated with or without B14, and total RNA was subsequently isolated and purified. Reverse transcription was performed using a cDNA synthesis kit. The relative transcription levels of the genes were evaluated through quantitative real-time PCR using the SYBR Green-based method, as described in the Supplementary Date. Details regarding the primer sequences and the raw data can be found in Table S7 and Table S8.
(§3) ^a -∆∆Ct = -[(Ct value of genes in treated sample - Ct value of genes in control) - (Ct value of β-actin in treated sample - Ct value of β-actin in control)]. ^b F: The relative expression fold.
(§4) Experiment 1: SH-SY5Y cells were treated with different concentration of B14. The Ct values of BAX, VEGF, CMYC and BCL-2 were obtained.
(§5) Total RNA was extracted from cells and mice liver tissue using RNAiso Plus (Takara, 9109, Japan). Following sample homogenization, chloroform was added, and the solution was allowed to have phase separation into an upper aqueous layer (containing RNA), an interphase, and a lower organic layer (containing DNA and proteins). RNA was precipitated from the aqueous phase using isopropanol, while DNA was precipitated from the aqueous-organic interphase using ethanol. Complementary DNA (cDNA) was synthesized using the One-Step RT-PCR Kit (Takara, Cat#639503, Japan).
(§6) Quantitative real-time polymerase chain reaction (qRT-PCR) was performed using the 2× RealStar SYBR Mixture (GenStar, Cat# A301-10, Guangzhou, China) on a LightCycler 480 II real-time PCR system (Roche, USA). Data were analyzed using the 2^−ΔΔCt method. Actin served as the internal control, and relative mRNA levels were normalized accordingly.

[2] = tested on: C-MYC gene transcription in SH-SY5Y cells; experiment: Real-time RT-PCR in SH-SY5Y cells, C-MYC; type: cell-based, human
Experimental: as §2, §3, §4, §5, §6

APP/PS1 transgenic mice = experiment: Nest building test (NBT); type: in vivo; details: B14 10, 20, 40 mg/kg i.p. every other day
Excerpt: (§7) Five months old male APP/PS1 mice, weighing 25–33 g, were purchased from Guangdong Medical Laboratory Animal Center and housed in the Laboratory Animal Center of Sun Yat-sen University (Guangzhou, China) for experimentation. All procedures were approved by the Animal Care and Use Committee of Sun Yat-sen University and complied with legal requirements and national guidelines for the care and maintenance of laboratory animals (Approval No. SYSU-IACUC-2024-002032). The mice were housed in a specific pathogen-free environment with a controlled temperature of 22 ± 1 °C and a 12-h dark/light cycle. The mice were fed with a standard diet, and 30 mice were randomly divided into 6 groups (N = 5). Compound B14 was dissolved in saline and administered at doses of 10, 20, or 40 mg/kg. […]
The spatial memory and learning abilities of the mice were assessed using Morris water maze (MWM), novel object recognition (NOR) and nesting experiments (NBT). The anxiety and depressive behaviors were evaluated through the open field test (OFT) and elevated plus maze (EPM). […]
The nest building test (NBT) assesses fine motor dexterity, cognitive function, and emotional states in mice while minimizing stress. […] After this period, photographs were taken of the paper sheets, and the nests built by the mice were scored.

[3] = tested on: MDA, SOD, GSH-Px, CAT in hippocampus of APP/PS1 mice; experiment: Biochemical parameters analysis (oxidative stress) in hippocampus; type: in vivo
Excerpt: as §7, with “mg/kg. APP/PS1 male mice were grown until 6 months of age, and then injected intraperitoneally with compound B14 every other day for 60 days.” for “mg/kg.”
The hippocampi were homogenized in normal saline containing protease inhibitors. The homogenate was centrifuged at 2500 rpm for 10 min, and the protein concentration in the supernatant was measured by using the bicinchoninic acid (BCA, Beyotime, Jiangsu, China) method. The levels of malondialdehyde (MDA) and the activities of superoxide dismutase (SOD), glutathione peroxidase (GSH-Px) and […] (CAT) were determined by using relevant assay kits (Beyotime, Jiangsu, China).

[4] = tested on: F-BCL-2 (BCL-2 IM) (DNA, i motif) CAGCCCCGCTCCCGCCCCCTTCCTCCCGCGCCCGCCCCT; experiment: MST, Hill fit; details: K+ 100 mM KCl plus potassium phosphate; BPES buffer (30 mM phosphate, 1 mM EDTA), pH 5.5

## O=C(CCN1CCOCC1)Nc1ccc2c(c1)c(=O)c1cc(NC(=O)CCN3CCOCC3)ccc1n2-c1ccc2occc2c1 [Compound B14]
RET promoter i-motif
  TO displacement ratio: 27%
SH-SY5Y cells
  toxicity to SH-SY5Y cells (viability): no significant toxicity to SH-SY5Y cells
SH-SY5Y cells; Homo sapiens, SH-SY5Y, incubation for 48 h
  pIC50: < 4.00
HT-22 cells
  pIC50: < 4.00
[1]; 6.25 μM B14
  -∆∆Ct, BCL-2: -0.31
  F = 2^-∆∆Ct (relative expression fold), BCL-2: 1.23
[1]; 12.5 μM B14
  -∆∆Ct, BCL-2: -0.73
  F = 2^-∆∆Ct (relative expression fold), BCL-2: 1.65
[1]; 25 μM B14
  -∆∆Ct, BCL-2: -1.11
  F = 2^-∆∆Ct (relative expression fold), BCL-2: 2.15
[2]; 6.25 μM B14
  -∆∆Ct, C-MYC: -0.01
  F = 2^-∆∆Ct (relative expression fold), C-MYC: 1.00
[2]; 12.5 μM B14
  -∆∆Ct, C-MYC: -0.02
  F = 2^-∆∆Ct (relative expression fold), C-MYC: 1.01
[2]; 25 μM B14
  -∆∆Ct, C-MYC: -0.03
  F = 2^-∆∆Ct (relative expression fold), C-MYC: 1.02
APP/PS1 transgenic mice
  nesting scores (NBT): significantly improved
[3]
  MDA level: reduce the levels of lipid peroxides MDA
  levels of antioxidant enzymes: restore the levels of antioxidant enzymes (SOD, GSH-Px, and CAT)
[4]
  KD: 1.06 µM

Source: publication PMC11982498 (Redox Biology, 2025)
